Structures can show the parent of a compound that is named as a salt. Where two headings read alike, the source gives them in different places.
Key:
in vivo = settings: rabbit; for AUC(0-inf) / AUC(0-t) / Cmax / Tmax / half-life: male, New Zealand albino, plasma
Description: The plasma levels of cyclobenzaprine (CBZ) were determined after a single intranasal dose of 1.5 mg/kg in a volume of 10 μl, and 3.0 mg/kg in a volume of 20 μl, and after a single oral dose of 1.5 mg/kg in New Zealand albino male rabbits.
1. The oral administration was performed with a 0.15% solution, the intranasal administration with a 15% solution.
2. Six male animals/group were treated with a single dose by intranasal or oral route.
3. Fifteen minutes before the drug administration the central artery of the ear was cannulated with a 25-gauge needle catheter and for each animal 7 blood collections at time 0 (TO, before drug administration) and at 15, 30, 60, 90, 120, 180 minutes after drug administration were performed. Three mL of blood sample were collected in heparinized tubes and the volume replaced with a Ringer-Lactate solution. The plasma samples were obtained from blood samples by centrifugation at 3000 g for 5 min. The plasma samples were be stored at −20±2° C. until the LC/MS/MS analysis.
4. Rabbit plasma concentrations of CBZ were determined using a validated LC-MS/MS method in the calibration range of 0.25-300 ng/mL.
Aliquots of 250 μL of rabbit plasma were spiked with 5 μL of internal standard (IS) solution (containing approximately 5000 ng/mL of IS, Imipramine Hydrochloride) in water:methanol (50/50, v/v), after vortex-mixing, 250 μL of borate buffer were added. After vortex-mixing, 3.5 mL of hexane were added. After vortex-mixing for 10 minutes and centrifugation at 10.000 rpm at +4° C. for 10 minutes, aliquots of 3 mL of organic phase were transferred into a single glass tube and dried under vacuum at 40° C. using a Büchi vacuum system. The residues were re-constituted with 100 μL of 20 Mm ammonium acetate buffer solution, 0.1%:acetonitrile (50/50, v/v) solution. The tubes were then capped, vortex-mixed and centrifugated at 4100 rpm at +4° C. for 10 minutes. The final extracts were transferred into an autosampler vial and 4 μL were injected into the LC-MS/MS system.
Calibration curves plot the ratio of the area of the compound and the IS (y) against the analyte concentration (x). A weighted linear regression function (1/x) is used to fit calibration lines and consequently to calculate CBZ concentrations. The lower and upper limits of quantification are 0.25 and 300 ng/mL of plasma samples.

[1] = pH higher than 7.4, opalescence formation
[2] = cited from earlier work
[3] = inhaled or intranasal, 1.5 mg/kg

AUC(0-inf) (in vivo; [3]): 65.8 ng·h/mL
AUC(0-t) (in vivo; [3]): 60.1 ng·h/mL
Cmax (in vivo; [3]): 69.3 ng/mL
Tmax (in vivo; [3]): 30 min
half-life (in vivo; [3]): 49.3 min
AUC(0-inf) (in vivo; inhaled or intranasal, 3 mg/kg): 65.6 ng·h/mL
AUC(0-t) (in vivo; inhaled or intranasal, 3 mg/kg): 54.6 ng·h/mL
Cmax (in vivo; inhaled or intranasal, 3 mg/kg): 65.1 ng/mL
Tmax (in vivo; inhaled or intranasal, 3 mg/kg): 30 min
half-life (in vivo; inhaled or intranasal, 3 mg/kg): 93.9 min
AUC(0-inf) (in vivo; po, 1.5 mg/kg): 3.44 ng·h/mL
AUC(0-t) (in vivo; po, 1.5 mg/kg): 2.08 ng·h/mL
Cmax (in vivo; po, 1.5 mg/kg): 1.28 ng/mL
Tmax (in vivo; po, 1.5 mg/kg): 30 min
half-life (in vivo; po, 1.5 mg/kg): 124 min
rate of absorption by intranasal route compared with oral route (in vivo): higher
absorption by intranasal route (in vivo; intranasal): well absorbed
λz (in vivo; intranasal 1.5 mg/kg, 15% solution): 0.940 h⁻¹
λz (in vivo; intranasal 3.0 mg/kg, 15% solution): 0.452 h⁻¹
dose dependence of Cmax and AUC by intranasal route (in vivo; intranasal 1.5 and 3.0 mg/kg): linear with the dose
λz (in vivo; oral 1.5 mg/kg, 0.15% solution): 0.361 h⁻¹
tonicity (10% aqueous solution): ipertonic
tonicity (15% aqueous solution): ipertonic
NaCl equivalent (aqueous solution containing 5% cyclobenzaprine hydrochloride): 0.88 g-eq di NaCl
osmolarity (aqueous solution containing 5% cyclobenzaprine hydrochloride, practically isotonic): 400 mOsmol/L
solubility of cyclobenzaprine base in the buffer solution [1]: not soluble
Compound: CN(C)CCC=C1c2ccccc2C=Cc2ccccc21 [Cyclobenzaprine, 3-(5H-dibenzo[a,d]cyclo-epten-5-yliden)-N,N-dimethyl-1-propanamine hydrochloride]
plasmatic half time ([2]; absorbed per os, range 8-37 hours): 18 h
time until effect of a single administration is shown ([2]; after oral taking): one
duration of effect of a single administration ([2]; oral taking): ≥ 12 h
